Values after ≈ are worked out from the molar mass of the structure shown. Like-named read-outs stand apart in the source and are kept apart here.
Experiments:
[1] = system: HIV reverse transcriptase, patient-derived protein; format: biochemical, HIV-1
Description: The PCR-generated DNA templates were expressed into HIV reverse transcriptase and protease using a coupled reticulocyte lysate system, TNT T7 Quick for PCR DNA (Promega, Madison, Wis.). Sizes of the proteins, as well as a confirmation of their integrity, was confirmed by Western Blot.

HIV = settings: cited from earlier work
[2] = system: mutant DNA gyrase A protein; assay: Supercoiling inhibition and DNA cleavage assays; format: biochemical, Streptococcus pneumoniae; settings: for MIC relative to maximal serum drug concentrations reported for standard dosage regimens: enzyme inhibition or DNA cleavage assays
Procedure: (§1) The functional activity of the purified mutant DNA gyrase A protein obtained from the fluoroquinolone resistant Streptococcus pneumoniae was compared to wild-type DNA gyrase A protein in supercoiling inhibition assays and DNA cleavage assays as described in Pan et al., and Barnard et al., supra. A concentration range of antibiotics was added to contact both the wild-type and mutant proteins. In addition, the affinities for each antibiotic and both the wild-type and mutant proteins were derived according to the method described in Roychoudhury, et al., supra.

wild-type DNA Gyrase A = target: T1, wild-type DNA Gyrase A (Streptococcus pneumoniae serotype 4, UniProt P0A4L9+P72524); assay: Binding assays (affinity), wild-type gyrase A
T1 construct: A 100 kDa protein, corresponding to the DNA gyrase A protein, was produced from this eukaryotic expression system; made in house; host or cells: cell-free coupled reticulocyte lysate (TNT T7 Quick for PCR DNA, Promega)
T1 sequence (P0A4L9 whole entry): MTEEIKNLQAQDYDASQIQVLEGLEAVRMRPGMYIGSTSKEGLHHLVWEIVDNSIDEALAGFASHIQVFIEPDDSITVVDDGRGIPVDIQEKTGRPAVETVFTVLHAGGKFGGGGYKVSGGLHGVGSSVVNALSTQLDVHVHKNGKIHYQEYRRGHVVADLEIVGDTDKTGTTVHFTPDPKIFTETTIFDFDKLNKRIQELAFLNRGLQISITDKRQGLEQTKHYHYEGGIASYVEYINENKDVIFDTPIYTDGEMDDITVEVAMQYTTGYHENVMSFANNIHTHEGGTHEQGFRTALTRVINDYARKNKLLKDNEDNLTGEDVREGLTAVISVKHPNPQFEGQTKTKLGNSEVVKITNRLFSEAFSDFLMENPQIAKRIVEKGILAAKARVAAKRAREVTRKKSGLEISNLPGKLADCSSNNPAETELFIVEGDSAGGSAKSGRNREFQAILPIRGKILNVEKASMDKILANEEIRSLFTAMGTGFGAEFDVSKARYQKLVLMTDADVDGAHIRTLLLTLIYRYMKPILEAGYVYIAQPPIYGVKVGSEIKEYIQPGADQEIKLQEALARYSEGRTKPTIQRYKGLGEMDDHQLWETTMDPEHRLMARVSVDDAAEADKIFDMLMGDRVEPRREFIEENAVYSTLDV
T1 sequence (P72524 whole entry): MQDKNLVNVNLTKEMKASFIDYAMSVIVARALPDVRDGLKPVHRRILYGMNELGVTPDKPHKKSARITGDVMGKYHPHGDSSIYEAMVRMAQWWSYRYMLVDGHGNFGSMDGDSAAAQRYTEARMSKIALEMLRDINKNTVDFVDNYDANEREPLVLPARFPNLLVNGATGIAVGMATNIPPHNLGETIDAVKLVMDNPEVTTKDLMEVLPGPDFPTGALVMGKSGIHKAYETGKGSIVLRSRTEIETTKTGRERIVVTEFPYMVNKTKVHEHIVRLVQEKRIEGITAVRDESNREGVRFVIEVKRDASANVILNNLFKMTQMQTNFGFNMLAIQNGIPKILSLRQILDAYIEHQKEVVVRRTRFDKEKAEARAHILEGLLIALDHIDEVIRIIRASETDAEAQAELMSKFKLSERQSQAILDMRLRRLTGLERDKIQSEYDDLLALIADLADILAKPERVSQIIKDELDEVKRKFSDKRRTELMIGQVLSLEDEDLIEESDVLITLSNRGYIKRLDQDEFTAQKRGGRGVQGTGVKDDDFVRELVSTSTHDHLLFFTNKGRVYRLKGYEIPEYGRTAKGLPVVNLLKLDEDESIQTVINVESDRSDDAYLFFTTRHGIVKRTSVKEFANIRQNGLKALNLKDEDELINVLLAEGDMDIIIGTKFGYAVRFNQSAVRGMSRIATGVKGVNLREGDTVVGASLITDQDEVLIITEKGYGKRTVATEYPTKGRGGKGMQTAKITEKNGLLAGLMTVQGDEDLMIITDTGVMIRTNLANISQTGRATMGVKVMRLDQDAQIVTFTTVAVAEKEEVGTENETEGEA
Procedure: as §1

mutant DNA Gyrase A = assay: Binding assays (affinity), mutant gyrase A; design: species or system Streptococcus pneumoniae
Procedure: as §1

[3] = system: DNA gyrase versus topoisomerase IV; assay: Ratio of affinity parameter, DNA gyrase to control protein topoisomerase IV; format: binding, Streptococcus pneumoniae
[4] = target: T2, mutant lanosterol 14 alpha-demethylase proteins (Candida albicans, UniProt P10613); assay: Prevention of CO-complex formation with reduced cytochrome P450, mutant; format: binding, C. albicans; settings: mutant proteins
T2 construct: IC50; other: mutant proteins; other: at 100 nM; A 60 kDa protein, corresponding to the lanosterol 14 alpha-demethylase protein, was produced from this eukaryotic expression system
T2 sequence (P10613 whole entry, looked up, stated change not applied): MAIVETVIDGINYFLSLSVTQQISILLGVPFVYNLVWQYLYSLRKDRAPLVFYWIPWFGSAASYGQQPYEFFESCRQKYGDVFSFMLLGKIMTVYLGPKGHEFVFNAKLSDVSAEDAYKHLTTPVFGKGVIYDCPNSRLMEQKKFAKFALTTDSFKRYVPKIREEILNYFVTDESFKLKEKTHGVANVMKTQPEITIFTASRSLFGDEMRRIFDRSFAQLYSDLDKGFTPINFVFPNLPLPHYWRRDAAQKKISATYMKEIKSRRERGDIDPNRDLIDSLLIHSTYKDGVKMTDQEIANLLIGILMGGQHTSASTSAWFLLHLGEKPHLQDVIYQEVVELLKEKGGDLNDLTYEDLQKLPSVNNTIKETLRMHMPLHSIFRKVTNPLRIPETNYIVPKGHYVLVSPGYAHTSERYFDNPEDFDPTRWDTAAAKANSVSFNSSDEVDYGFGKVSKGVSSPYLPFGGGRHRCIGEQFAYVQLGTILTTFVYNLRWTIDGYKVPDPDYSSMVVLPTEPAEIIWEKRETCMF
Procedure: (§2) Microsomes were isolated from C. albicans as described in Marichal, P., et al., Microbiology (1999), 145, 2701-2713, incorporated herein by reference. Prevention of CO-complex formation in the reduced microsomal cytochrome P450 preparation provides an assay that can be used to test the affinity of the protein for an azole. The P-450 content and the effects of azoles on the interaction of CO with the reduced haem iron of P-450 were measured as described in Vanden Bossche, H., et al., Drug Dev Res, 8:287-298 (1986), incorporated herein by reference. The assay employed 0.1 nmol cytochrome P450 and 100 pM to 100 μM ranges of the anti-fungal compounds itraconazole and fluconazole.

[5] = system: mutant lanosterol 14 alpha-demethylase proteins; assay: as above; format: binding, C. albicans; settings: mutant versus wild-type
Procedure: as §2

S. cerevisiae AD1-8u(−) = settings: Nakamura 2001; cited from earlier work
[6] = system: strain AD 1002 overexpressing C. albicans Cdr1p; settings: strain AD 1002 overexpressing Cdr1p, Nakamura 2001; cited from earlier work
[7] = target: T3, wild-type lanosterol 14 alpha-demethylase protein (Candida albicans, UniProt P10613); assay: Prevention of CO-complex formation with reduced cytochrome P450, wild-type; format: binding, C. albicans; design: A 60 kDa protein, corresponding to the lanosterol 14 alpha-demethylase protein, was produced from this eukaryotic expression system; made in house; settings: wild-type proteins
T3 sequence (P10613 whole entry): as the sequence (P10613 whole entry, looked up, stated change not applied) above
Procedure: as §2

[8] = target: wild-type HCV NS5B RNA-dependent RNA polymerase (Hepatitis C virus genotype 2b, UniProt Q9DHD6); format: biochemical
wild-type HCV NS5B RNA-dependent RNA polymerase, sequence (Q9DHD6 2443-3033 limits assumed): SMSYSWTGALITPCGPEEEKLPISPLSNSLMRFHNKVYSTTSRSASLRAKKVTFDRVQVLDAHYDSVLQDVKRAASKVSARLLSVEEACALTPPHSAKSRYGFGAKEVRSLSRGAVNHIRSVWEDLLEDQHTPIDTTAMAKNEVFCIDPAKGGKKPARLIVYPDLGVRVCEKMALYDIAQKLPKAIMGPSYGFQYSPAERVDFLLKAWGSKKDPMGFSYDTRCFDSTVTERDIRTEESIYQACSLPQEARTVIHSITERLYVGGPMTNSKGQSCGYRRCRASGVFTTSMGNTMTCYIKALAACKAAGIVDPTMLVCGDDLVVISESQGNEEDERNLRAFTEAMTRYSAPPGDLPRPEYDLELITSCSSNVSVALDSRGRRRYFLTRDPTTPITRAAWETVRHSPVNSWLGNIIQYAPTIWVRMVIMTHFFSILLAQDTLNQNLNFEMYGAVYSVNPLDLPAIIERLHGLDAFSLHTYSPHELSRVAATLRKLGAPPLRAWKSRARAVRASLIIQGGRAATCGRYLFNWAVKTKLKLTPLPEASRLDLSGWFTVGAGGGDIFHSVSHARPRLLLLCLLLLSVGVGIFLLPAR

[9] = system: patient derived HCV NS5B RNA-dependent RNA polymerase; format: biochemical, hepatitis C virus
[10] = target: T3, wild-type lanosterol 14 alpha-demethylase protein; design: A 60 kDa protein, corresponding to the lanosterol 14 alpha-demethylase protein, was produced from this eukaryotic expression system; made in house; host or cells: cell-free coupled reticulocyte lysate (TNT T7 Quick for PCR DNA, Promega); settings: typically reported; cited from earlier work
[11] = target: wild-type HBV polymerase (HBV-WT) (Hepatitis B virus genotype A2 subtype adw2, UniProt P03159); assay: DNA polymerase assay (non-radioactive, sandwich ELISA) with cell-free expressed HBV polymerase; settings: read-out: IC50, inhibition of DNA polymerase activity, FIG. 3, approximate
wild-type HBV polymerase (HBV-WT), sequence (P03159 whole entry): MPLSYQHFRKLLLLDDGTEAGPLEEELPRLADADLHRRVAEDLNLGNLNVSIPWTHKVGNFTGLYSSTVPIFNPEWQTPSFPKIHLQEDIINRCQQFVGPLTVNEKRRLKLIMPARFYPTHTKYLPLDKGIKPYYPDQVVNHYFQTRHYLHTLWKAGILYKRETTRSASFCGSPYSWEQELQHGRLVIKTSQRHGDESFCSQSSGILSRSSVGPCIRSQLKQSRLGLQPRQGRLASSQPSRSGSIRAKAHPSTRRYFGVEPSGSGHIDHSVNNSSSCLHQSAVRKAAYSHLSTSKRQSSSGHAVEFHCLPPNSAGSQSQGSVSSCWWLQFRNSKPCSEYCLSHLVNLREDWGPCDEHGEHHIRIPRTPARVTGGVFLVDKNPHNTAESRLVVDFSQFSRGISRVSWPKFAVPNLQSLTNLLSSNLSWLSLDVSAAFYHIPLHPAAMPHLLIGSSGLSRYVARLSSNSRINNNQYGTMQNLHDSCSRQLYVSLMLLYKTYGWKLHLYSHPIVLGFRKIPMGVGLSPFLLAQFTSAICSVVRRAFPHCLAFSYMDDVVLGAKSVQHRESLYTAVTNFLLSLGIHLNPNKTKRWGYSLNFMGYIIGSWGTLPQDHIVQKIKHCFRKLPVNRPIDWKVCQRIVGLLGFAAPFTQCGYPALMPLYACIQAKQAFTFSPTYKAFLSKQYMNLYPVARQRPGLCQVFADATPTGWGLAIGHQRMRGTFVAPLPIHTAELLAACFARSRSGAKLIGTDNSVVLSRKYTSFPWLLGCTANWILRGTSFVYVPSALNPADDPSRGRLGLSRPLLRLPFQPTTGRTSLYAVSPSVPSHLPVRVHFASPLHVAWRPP
Description: A sensitive DNA polymerase assay (Roche Molecular Biochemicals, Indianapolis, Ind.) was used to determine the DNA polymerase activity of the expressed HBV polymerase proteins. […] The DNA polymerase assay as shown provides a non-radioactive assay, which measures the ability of the enzyme to digoxigenin and biotin labeled nucleotides into freshly synthesized DNA. The detection of synthesized DNA as a parameter for DNA polymerase activity follows a sandwich ELISA protocol—biotin labeled nucleic acid binds the surface of a microtiter plate coated with streptavidin. An anti-digoxigenin antibody conjugated to peroxidase is incubated with the nucleic acid. Upon addition of the peroxidase substrate, a color change occurs corresponding to the peroxidase activity, which is detected by a microplate ELISA reader. The absorbance samples is directly correlated to the level of DNA polymerase activity in the sample. […] In FIG. 1, HBV-WT refers to the wild-type HBV polymerase. […] PC and NC refer respectively to positive and negative controls. Briefly, the positive control includes Klenow enzyme in polymerase buffer. The negative control includes reticulcyte lysate without the DNA amplicon.
Inhibition of DNA polymerase activity (%) was plotted against compound concentration. […]

Cc1cn([C@H]2C[C@H](N=[N+]=[N-])[C@@H](CO)O2)c(=O)[nH]c1=O [AZT, zidovudine]
difference in the IC50 value, patient sample versus wild-type [1]: five-fold | reduction of virus replication (HIV): about 90%

NC1CCN(c2c(F)cc3c(=O)c(C(=O)O)cn(C4CC4)c3c2Cl)C1 (centres unmarked) [clinafloxacin]
MIC relative to maximal serum drug concentrations reported for standard dosage regimens [2]: below the maximal serum concentrations | affinity compared with ciprofloxacin, trovafloxacin, gatifloxacin, gemifloxacin and moxifloxacin (wild-type DNA Gyrase A): higher affinities | affinity compared with ciprofloxacin, trovafloxacin, gatifloxacin, gemifloxacin and moxifloxacin (mutant DNA Gyrase A): higher affinities | ratio of the calculated affinity parameter for DNA gyrase to that for topoisomerase IV, compared with ciprofloxacin and trovafloxacin [3]: lower

OC(Cn1cncn1)(Cn1cncn1)c1ccc(F)cc1F [fluconazole]
IC50 [4]: ~4880 nM | range of IC50 values, wild-type to mutant [5]: more than 100 fold | MIC(80), MIC at which 80% of cells were inhibited (S. cerevisiae AD1-8u(−)): 0.625 µg/mL | MIC(80) [6]: 30 µg/mL (≈ 98 µM) | IC50 [7]: 40 nM

COc1c(N2CCNC(C)C2)c(F)cc2c(=O)c(C(=O)O)cn(C3CC3)c12 (centres unmarked) [gatifloxacin]
MIC relative to maximal serum drug concentrations reported for standard dosage regimens [2]: above the maximal serum drug concentrations | ratio of the calculated affinity parameter for DNA gyrase to that for topoisomerase IV, compared with ciprofloxacin and trovafloxacin [3]: lower

CO/N=C1\CN(c2nc3c(cc2F)c(=O)c(C(=O)O)cn3C2CC2)CC1CN (centres unmarked) [gemifloxacin]
MIC relative to maximal serum drug concentrations reported for standard dosage regimens [2]: below the maximal serum concentrations

CN1C(=O)[C@]23CC4=CC=C[C@H](O)[C@H]4N2C(=O)[C@@]1(CO)SS3 [gliotoxin]
effect on RdRp activity [8]: inhibited HCV NS5B RdRp of both wild-type and patient derived proteins in a dose-dependent manner | effect on RdRp activity [9]: inhibited HCV NS5B RdRp of both wild-type and patient derived proteins in a dose-dependent manner

Cc1c(F)c(N2CCNC(C)C2)cc2c1c(=O)c(C(=O)O)cn2C1CC1 (centres unmarked) [grepafloxacin]
MIC relative to maximal serum drug concentrations reported for standard dosage regimens [2]: above the maximal serum drug concentrations

CCC(C)n1ncn(-c2ccc(N3CCN(c4ccc(OCC5COC(Cn6cncn6)(c6ccc(Cl)cc6Cl)O5)cc4)CC3)cc2)c1=O (centres unmarked) [itraconazole]
IC50 [4]: 30 to 75 nM | IC50 [10]: 10 to 50 nM

CC(=O)N1CCN(c2ccc(OCC3COC(Cn4ccnc4)(c4ccc(Cl)cc4Cl)O3)cc2)CC1 (centres unmarked) [ketoconazole]
MIC(80) [6]: 0.5 µg/mL (≈ 0.941 µM)

Nc1ccn([C@@H]2CS[C@H](COP(=O)(O)OP(=O)(O)OP(=O)(O)O)O2)c(=O)n1 [lamivudine-TP]
IC50 [11]: ~50 nM

CN[C@@H](C)[C@@H]1CCN(c2c(F)cc3c(=O)c(C(=O)O)cn(C4CC4)c3c2OC)C1 [premafloxacin]
fold increase in inhibitory concentration of mutant versus wild-type enzyme [2]: 32 fold

NC(=O)c1ncn([C@@H]2O[C@H](COP(=O)(O)OP(=O)(O)OP(=O)(O)O)[C@@H](O)[C@H]2O)n1 [ribavirin triphosphates]
effect on RdRp activity ([8]; wild-type NS5B protein): no inhibitory effect | effect on RdRp activity [9]: no inhibitory effect

C[C@@H]1CN(c2c(F)c(N)c3c(=O)c(C(=O)O)cn(C4CC4)c3c2F)C[C@H](C)N1 [sparfloxacin]
fold increase in inhibitory concentration of mutant versus wild-type enzyme [2]: about 4 fold

N[C@@H]1[C@H]2CN(c3nc4c(cc3F)c(=O)c(C(=O)O)cn4-c3ccc(F)cc3F)C[C@@H]12 [trovafloxacin]
MIC relative to maximal serum drug concentrations reported for standard dosage regimens [2]: above the maximal serum drug concentrations

Reference: patent US20030039957A1, “Functional protein expression for rapid cell-free phenotyping” (priority 2000, published 2003)
